Earlier results as cited in patent US10202400B2, “Cortistatin analogues and syntheses thereof” (President and Fellows of Harvard College, priority 2008, dated 2019).
Converted amounts (≈) assume the structure as drawn.

How the values were obtained:
[1] = test system: several human and murine cancer cell lines and one normal human dermal fibroblast cell line (KB3-1, Neuro2A, K562, NHDF)
[2] = test system: human umbilical vein endothelial cells (HUVECs)
[3] = test system: human nasopharynx carcinoma (KB) cells

SMILES | GI50 [1] [µM] | HUVEC cellular migration (HUVEC) | GI50 [2] [µM] | tubular formation in HUVECs (HUVECs) | ED50 [3] [mg/L]
CN(C)[C@H]1C[C@@]23CC[C@@]4(O2)C(=CC[C@]2(C)[C@@H](c5ccc6ccncc6c5)CC[C@H]24)C=C3[C@@H](O)[C@@H]1O [Cortistatin A, cortistatin A] | 6 to 7 | inhibits HUVEC cellular migration | 0.00018 | inhibits tubular formation | –
CN[C@@H](C)[C@H]1CC[C@H]2[C@@H]3CC[C@@H]4C(=CC3=CC[C@]12C)CC[C@H](NC)C4(C)C [buxenine G] | – | – | – | – | 0.4 (≈ 1.08 µM)
